Results as given in PMC7617869, “Molecular glues that inhibit deubiquitylase activity and inflammatory signaling” (Nature Structural & Molecular Biology, 2025).
Values joined by “and” are separate entries in the source; they are usually repeats but may differ in a detail not shown here. Equal values may be shown once.

How the values were obtained:
[1] = test system: NF-κB pathway in THP-1 cells; experiment: THP-1 NF-κB pathway SEAP reporter, lipopolysaccharide stimulation; format: cell-based, human; settings: LPS + compound, three replicates
Description: (§1) THP-1 in vitro experiments
(§2) THP-1-DualTM cells (InvivoGen), derived from a human monocytic cell line, isolated from a patient with acute monocytic leukaemia, were cultured as per manufacturer’s guidance. Cells were seeded at 1x10^6 cells/mL in RPMI1640 media containing 10% fetal bovine serum (FBS), 1% penicillin-streptomycin (PS) (Gibco Laboratories) with DMSO (0.1%) (control) or in media containing JMS-175- […]
(§3) ng/mL) (Merck Life Science), ODN 2216 (1 µM) (Miltenyi Biotec), or Poly:IC (1 µg/mL) (InvivoGen).
(§4) Tofacitinib (Cambridge Biosciences) at 0.4 µM was used for comparison against a known JAK inhibitor.
(§5) Cells were centrifuged at 300 g for 5 minutes. Supernatant was removed and subjected to simultaneous study of the NF -κB pathway, by monitoring the activity of secreted alkaline phosphatase reporter (SEAP), and the IRF pathway, by assessing the activity o f a secreted Lucia luciferase using QUANTI - Blue ™ Solution and QUANTI -Luc™ 4 Lucia/Gaussia (InvivoGen), respectively, as per manufacturer’s instructions. Pelleted cells were used for FACS analysis using IFNα/β R1 APC-conjugated antibody or isotype control (Biotechne, FAB245A and IC002A), or unstained staining procedure with and without Zombie GreenTM (Biolegend). Samples were analysed using CytoFlex LX (Beckman) (50,000 live cells per condition). Median fluorescence intensity for APC channel gated on single cell live cells was analysed and compared as a percentage to control (no stimulation condition). […]

THP-1 cells = experiment: THP-1 live cell percentage; format: cell-based; settings: male, human, 16 h, 0.4 µM
Description: as §1, §2, §3, §4, §5

[2] = test system: ISRE in THP-1 cells (TLR3 agonist polyI:C); experiment: THP-1 ISRE luciferase reporter, polyI:C stimulation; format: cell-based, human; settings: polyI:C 1 µg/mL, 0.4 μM, 16 h
Description: as §1, §2, §3, §4, §5

[3] = test system: IFNAR1 surface levels in THP-1 cells; experiment: THP-1 IFNAR1 surface levels (FACS); format: cell-based, human
Description: as §1, §2, §3, §4, §5

[4] = test system: ISRE in THP-1 cells (TLR9 agonist ODN 2216); experiment: THP-1 ISRE luciferase reporter, ODN 2216 stimulation; format: cell-based, human; settings: ODN 2216 1 µM, 0.4 μM, 16 h
Description: as §1, §2, §3, §4, §5

[5] = test system: IFN-stimulated response elements (ISRE) in THP-1 cells; experiment: THP-1 ISRE luciferase reporter, IFNα2 stimulation; format: cell-based, human
Description: as §1, §2, §3, §4, §5

BRISC = target: T1, BRISC (Homo sapiens, UniProt P46736+Q15018+Q9NXR7); experiment: Compound library screening and hit validation (IQF diubiquitin, 1 nM BRISC); format: biochemical; settings: for BRISC, normalised activity (Ext. 1a): two replicate columns
T1 construct: made in house; host or cells: Spodoptera frugiperda (Sf9) insect cells, MultiBac
Description: (§6) Assays were performed in 384-well black flat-bottom low-flange plates (Corning, 35373) in buffer containing 50 mM HEPES–NaOH pH 7.0, 100 mM NaCl, 1 mg ml^−1 BSA, 1 mM DTT and 0.03% v/v Brij-35. Then, 10 μl of twofold concentrated enzyme stock was dispensed, followed by transfer of 200 nl of compounds (1 mM stock) using a 384-pin tool and a 15-min incubation at room temperature. Then, 10 μl of twofold concentrated substrate stock was added and the reaction was monitored by measuring fluorescence intensity (excitation, 540 nm; emission, 580 nm) after 20-min incubation at room temperature and ~50% of substrate was consumed. Orthogonal assays for verification of H20 and P12 hit compounds using USP2 (100 nM) and trypsin (125 nM) were performed in identical conditions.

trypsin = experiment: Trypsin IQF diubiquitin selectivity assay; format: biochemical; settings: for TRYPSIN, normalised activity (Ext. 1a): two replicate columns
Description: as §6, with “BRISC DUB activity was measured at room temperature using 1 nM BRISC and 500 nM IQF diubiquitin K63 substrate (LifeSensors, DU6303) in the presence of DMSO and compounds at 10 μM (final concentrations). Assays” for “Assays”
(§7) IQF assays were performed in DUB reaction buffer containing 50 mM HEPES–NaOH pH 7.0, 100 mM NaCl, 0.1 mg ml^−1 BSA, 1 mM DTT and 0.03% v/v Brij-35. […] The final concentration of BRISC WT, all BRISC mutants, HsBRISCΔLoop, MmBRISC and DrBRISCΔNΔC was 1 nM. Other enzymes were tested at the following concentrations: 5 nM ARISC (FL), 10 nM CfBRISCΔNΔC, 250 nM AMSH* (ref. [43]), 500 nM USP2 and 1 μM trypsin (Sigma, 9002-07-7). For Michaelis–Menten experiments, 1 nM BRISC with 0–1 μM IQF K63-linked diubiquitin substrate was used. Michaelis–Menten analyses and Lineweaver–Burk plots were calculated using GraphPad Prism (version 9.0).
(§8) To assess enzymatic activity, BRISC complexes were diluted to concentrations between 1 nM and 50 nM. […] Then, 20-μl enzyme reactions were carried out in 384-well black flat-bottom low-flange plates (Corning, 35373). DUB activity was measured using IQF K63-linked diubiquitin (LifeSensors, DU6303) at 50 nM. Cleaved diubiquitin was monitored by measuring fluorescence intensity (excitation, 544 nm; emission, 575 nm; dichroic mirror, 560 nm). Fluorescence intensity was measured every minute for 30 min at 30 °C. Fluorescence intensity units were plotted against time to generate a linear reaction progress curve, where the initial velocity (V0) corresponds to the gradient of the curve (typically achieved within 15 min). IC50 values were calculated using the GraphPad Prism (version 9.0) built-in dose–response equation for inhibitor concentration versus response (variable slope).

USP2 = target: T2, USP2 (Homo sapiens, UniProt O75604); experiment: USP2 IQF diubiquitin selectivity assay; format: biochemical; settings: for USP2, normalised activity (Ext. 1a): two replicate columns
T2 construct: His (N, cleaved yes); host or cells: Escherichia coli BL21(DE3)
T2 sequence (O75604 258-605 limits assumed): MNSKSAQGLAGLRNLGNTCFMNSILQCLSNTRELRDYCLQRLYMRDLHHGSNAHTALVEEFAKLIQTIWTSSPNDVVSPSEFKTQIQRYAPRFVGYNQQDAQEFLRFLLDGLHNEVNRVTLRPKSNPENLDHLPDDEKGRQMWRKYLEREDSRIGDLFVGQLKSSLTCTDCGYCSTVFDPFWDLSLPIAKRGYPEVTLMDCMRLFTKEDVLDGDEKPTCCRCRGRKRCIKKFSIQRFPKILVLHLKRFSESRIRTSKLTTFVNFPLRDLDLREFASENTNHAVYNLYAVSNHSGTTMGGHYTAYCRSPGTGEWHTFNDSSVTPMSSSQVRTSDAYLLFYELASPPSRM
Description: as §6, with “BRISC DUB activity was measured at room temperature using 1 nM BRISC and 500 nM IQF diubiquitin K63 substrate (LifeSensors, DU6303) in the presence of DMSO and compounds at 10 μM (final concentrations). Assays” for “Assays”
as §7, §8

[6] = log [compound (μM)] 0.1938, listed as P12
[7] = log [compound (μM)] 0.4949, listed as P12
[8] = log [compound (μM)] 0.7959, listed as P12
[9] = log [compound (μM)] 1.0969, listed as P12
[10] = log [compound (μM)] 1.3979, listed as P12
[11] = log [compound (μM)] 1.6990, listed as P12
[12] = log [compound (μM)] 2.0000, listed as P12
[13] = log [compound (μM)] -0.1072, listed as P12
[14] = log [compound (μM)] -0.4082, listed as P12
[15] = log [compound (μM)] -0.7093, listed as P12
[16] = log [compound (μM)] -1.0103, listed as P12
[17] = log [compound (μM)] -2.0103, normalisation point

**Q.** C[C@@H]1CCN(C(=O)CC#N)C[C@@H]1N(C)c1ncnc2[nH]ccc12 [tofacitinib, reference compound] was tested. Which “NF-κB SEAP reporter signal” value [1] did it give?
**A.** 1.232 and 1.181 and 1.209

**Q.** And the “percentage of live cells” value (THP-1 cells)?
**A.** 98.18%

**Q.** And the “ISRE luciferase signal in THP-1 supernatant” value (“ISRE luciferase signal” below) [2]?
**A.** not reduced

**Q.** What about the “ISRE luciferase signal” value ([2]; listed as Tofacitinib) of the same compound?
**A.** 199.667 and 316.333 and 317.333

**Q.** And the “IFNAR1 surface levels (Fig. 5h)” value ([3]; IFN + compound, No IFN = 100)?
**A.** 59.2689 and 88.3889 and 79.9066

**Q.** What about the IFNAR1 surface levels ([3]; THP-1, hIFNα2 25 ng/ml, 0.4 μM, 16 h) of the same compound?
**A.** no significant reduction

**Q.** And the “ISRE luciferase signal” value [4]?
**A.** not reduced

**Q.** And the “ISRE luciferase signal” value ([4]; listed as Tofacitinib)?
**A.** 198.333 and 276 and 283.333

**Q.** And the “ISRE luciferase reporter signal (Fig. 5a)” value ([5]; IFN + compound, replicate values)?
**A.** 1776.67 and 1732 and 1959.33 and 2178.33

**Q.** What about the ISRE relative expression ([5]; hIFNα2 25 ng/ml, 0.4 μM, 16 h) of the same compound?
**A.** potent effect

**Q.** What does the source list for Nc1ccc(C(=O)Nc2cccc(-c3nc(N4CCOCC4)c4oc5ncccc5c4n3)c2)cn1 [YM201636, reference compound]?
**A.** inhibition of BRISC, hit validation dose response (BRISC; BRISC 1 nM): inhibited; BRISC, normalised activity (Ext. 1a) (BRISC; [6]): 0.9184 and 0.9164; BRISC, normalised activity (Ext. 1a) (BRISC; [7]): 0.8260 and 0.8472; BRISC, normalised activity (Ext. 1a) (BRISC; [8]): 0.7220 and 0.6802; BRISC, normalised activity (Ext. 1a) (BRISC; [9]): 0.5475 and 0.6138; BRISC, normalised activity (Ext. 1a) (BRISC; [10]): 0.4196 and 0.4274; BRISC, normalised activity (Ext. 1a) (BRISC; [11]): 0.2277 and 0.3017; BRISC, normalised activity (Ext. 1a) (BRISC; [12]): 0.1348 and 0.1662; BRISC, normalised activity (Ext. 1a) (BRISC; [13]): 0.9841 and 0.9959; BRISC, normalised activity (Ext. 1a) (BRISC; [14]): 1.0145 and 0.9950; BRISC, normalised activity (Ext. 1a) (BRISC; [15]): 0.9264 and 1.0022; BRISC, normalised activity (Ext. 1a) (BRISC; [16]): 0.9725 and 0.9468; BRISC, normalised activity (Ext. 1a) (BRISC; [17]): 1.0000; inhibition of trypsin (trypsin; IQF K63 diubiquitin substrate): inhibited; TRYPSIN, normalised activity (Ext. 1a) (trypsin; [6]): 0.9684 and 0.9837; TRYPSIN, normalised activity (Ext. 1a) (trypsin; [7]): 0.8434 and 0.8923; TRYPSIN, normalised activity (Ext. 1a) (trypsin; [8]): 0.6993 and 0.7044; TRYPSIN, normalised activity (Ext. 1a) (trypsin; [9]): 0.6731 and 0.7139; TRYPSIN, normalised activity (Ext. 1a) (trypsin; [10]): 0.4990 and 0.5130; TRYPSIN, normalised activity (Ext. 1a) (trypsin; [11]): 0.3403 and 0.4535; TRYPSIN, normalised activity (Ext. 1a) (trypsin; [12]): 0.3318 and 0.3209; TRYPSIN, normalised activity (Ext. 1a) (trypsin; [13]): 1.0347 and 0.9747; TRYPSIN, normalised activity (Ext. 1a) (trypsin; [14]): 1.0259 and 0.9266; TRYPSIN, normalised activity (Ext. 1a) (trypsin; [15]): 0.9472 and 0.9474; TRYPSIN, normalised activity (Ext. 1a) (trypsin; [16]): 0.9224 and 0.9184; TRYPSIN, normalised activity (Ext. 1a) (trypsin; [17]): 1.0000; inhibition of USP2 (USP2; IQF K63 diubiquitin substrate): inhibited; USP2, normalised activity (Ext. 1a) (USP2; [6]): 0.9446 and 0.9072; USP2, normalised activity (Ext. 1a) (USP2; [7]): 0.7366 and 0.8095; USP2, normalised activity (Ext. 1a) (USP2; [8]): 0.5989 and 0.5952; USP2, normalised activity (Ext. 1a) (USP2; [9]): 0.4578 and 0.4777; USP2, normalised activity (Ext. 1a) (USP2; [10]): 0.2821 and 0.3159; USP2, normalised activity (Ext. 1a) (USP2; [11]): 0.1157 and 0.1340; USP2, normalised activity (Ext. 1a) (USP2; [12]): 0.0697 and 0.0548; USP2, normalised activity (Ext. 1a) (USP2; [13]): 0.9974 and 0.9861; USP2, normalised activity (Ext. 1a) (USP2; [14]): 1.0145 and 0.9995; USP2, normalised activity (Ext. 1a) (USP2; [15]): 1.0193 and 1.0736; USP2, normalised activity (Ext. 1a) (USP2; [16]): 0.9978 and 1.0361; USP2, normalised activity (Ext. 1a) (USP2; [17]): 1.0000
